The record followed here is the METLIN SMRT retention time set (Domingo-Almenara et al. 2019).

The data set can be described thus: gradient 5% acetonitrile 3 min, to 50% in 2 min, to 85% in 15 min, held 3 min, 100 µL/min. Particulars: column: Zorbax Extend-C18 2.1 x 50 mm; eluents: water / acetonitrile, 0.1% formic acid. The gist of the method:
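The system's dead and dwell volumes were 40 μL and 900 μL, with a Zorbax Extend-C18 column (2.1 × 50 mm, 1.8 μm) run at 100 μL/min in water and acetonitrile containing 0.1% formic acid each. Pure standards were analyzed in mixtures of ~100 molecules by HPLC–quadrupole time-of-flight mass spectrometry in positive and negative ionization mode. Retention time was assigned from computationally picked, manually inspected adduct peaks.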
The compound `Cc1ccccc1-c1nnc(COc2ccc(NC(=O)Cc3cccs3)cc2)o1` had an RP-LC retention time of 976 s.

In turn, `COc1cccc(COc2coc(C(=O)Nc3nnc(C)s3)cc2=O)c1` had an RP-LC retention time of 660 s. In turn, `COc1cc(OC)cc(-c2nc(-c3cn(Cc4cccc(F)c4)nn3)no2)c1` came in with an RP-LC retention time of 1030 s. In the case of `Cc1noc(C)c1S(=O)(=O)N1CCCC(Cn2c(C3CC3)nc3cccnc32)C1` (stereo not given) it was 720 s; in that of `CCc1nc(N2CCC(C(=O)NCc3cc(OC)ccc3OC)CC2)c2c(C)scc2n1`, 691 s. As to `COc1ccc(CC2C(=O)Nc3ccc(Cl)cc32)cc1` (stereo not given), the RP-LC retention time was found to be 888 s. `COc1cccc(NC(=O)N2CCCC2c2nc(-c3cccc(OC)c3)no2)c1` (stereo not given) gave an RP-LC retention time of 947 s. `O=C1NCCCCCCN(C(=O)c2cn[nH]c2)[C@H]2CCC[C@@H]12`: the RP-LC retention time came out at 625 s. As to `Cc1cncn(CC(=O)NCc2cccs2)c1=O`, the RP-LC retention time came out at 580 s. To `Cc1[nH]c2ccccc2c1C(=O)CSc1n[nH]c(N)n1` belongs 567 s; to `CCCS(=O)(=O)NCCNc1cc(-n2nc(C)cc2C)ncn1`, 679 s.

For the compound `Cc1nnc2n1CCN(C(=O)c1nn(C)c3ccccc13)C2`, the RP-LC retention time amounted to 605 s.

Consider `COc1ccc(CNC(=O)Cn2c(=O)cc(-c3nc(C4CC4)no3)c3ccccc32)cc1`, for which the RP-LC retention time was 888 s.

In turn, `CCC(=O)N(C1CCOCC1)C1CCN(S(=O)(=O)c2ccc(CC)cc2)CC1` returned an RP-LC retention time of 908 s. In the case of `CN(CCCNC(=O)C1CCCN(c2ncnc3c2nc2n3CCCCC2)C1)Cc1ccccc1` (stereo not given), the RP-LC retention time amounted to 616 s. The compound `O=C(CCc1c(-c2ccc(F)cc2)nc2ccccn12)N1CCN(c2ccccc2)CC1` came in with an RP-LC retention time of 693 s.

Compound `CCC(CC)CN1CCC(n2c(C)cnc2-c2cccnc2)C1` (stereo not given) registered an RP-LC retention time of 545 s.

The compound `Cc1nn(CC(=O)NCc2ccco2)c(=O)c2c(-n3cccc3)n(-c3ccccc3)nc12` gave an RP-LC retention time of 881 s. Take `COc1cccc(CNC(=O)Cn2c(=O)c3cc(-c4cccs4)nn3c3ncccc32)c1`: the RP-LC retention time stood at 835 s.

For the compound `COc1ccc(C(=O)N2CCC3(CC2)NC(=O)c2cc(F)ccc2N3C)c(OC)c1`, the RP-LC retention time was determined as 734 s. Compound `O=C1NC2(CCN(C(=O)c3ccccc3)CC2)N=C1c1ccc(Br)cc1` showed an RP-LC retention time of 861 s. To `Cc1ccc(NC(=O)CN2CCC(c3nc(-c4cccs4)no3)CC2)c(Cl)c1` belongs 777 s; to `Cc1ccc(C)c(S(=O)(=O)NCc2ccc(C(=O)N3CCCCC3C)cc2)c1` (stereo not given), 961 s.

For `Cc1cccc(OCc2nc(-c3cccc(-c4csc(C5CC5)n4)c3)no2)c1`, the RP-LC retention time stood at 1430 s. To `O=C(CSc1ccc(-c2ccc(-n3ccnc3)cc2)nn1)NCc1ccco1` belongs 554 s; to `COc1ccc(NC(=O)CCC2CCN(c3cc(NC4CC4)ncn3)CC2)c(C)c1`, 575 s.

`CCCCNC(=O)Cn1c(=O)cc(-c2nc(C3CC3)no2)c2ccccc21` yielded an RP-LC retention time of 874 s.

Take `CCc1nc2c(NC(=O)c3ccc(OC)cc3)cccn2n1`: the RP-LC retention time was 819 s.

The compound `Fc1ccccc1-c1noc(Cc2nnc(-c3cccc(Br)c3)o2)n1` registered an RP-LC retention time of 1110 s. In the case of `CC1=C(c2ccc(Cl)cc2)S(=O)(=O)N=C1N1CCCN(C(=O)NC(C)(C)C)CC1` it was 871 s; in that of `Cn1c(-c2cccc(C(=O)NCc3cc(F)ccc3F)c2)nc2cccnc21`, 726 s; in that of `CCOC(=O)C(=O)Nc1nnc(SCc2nnc(-c3ccccc3C)o2)s1`, 829 s.

`Cc1cc(C(=O)Nc2ccc(CC(=O)NCc3cccs3)cc2)c(C)o1` yielded an RP-LC retention time of 762 s. `COc1ccc(NC(=O)N2CCC(n3c(C(F)(F)F)nc4cccnc43)CC2)c(OC)c1`: the RP-LC retention time came to 768 s. The compound `NC(=O)C1CCN(C(=O)c2cncc(NS(=O)(=O)c3ccc(F)cc3)c2)CC1` yielded an RP-LC retention time of 606 s. In turn, `COc1ccc2[nH]cc(CCN3CC(C(=O)Nc4cc(F)cc(F)c4)CC3=O)c2c1` (stereo not given) returned an RP-LC retention time of 821 s. With `CCc1cc(C2CCCN2C(=O)Nc2cccc(OC)c2)on1` (stereo not given), the RP-LC retention time was determined as 835 s.

For the compound `Cc1cccc(-c2nc(-c3nnn(-c4ccccc4)c3C)no2)c1`, the RP-LC retention time came out at 1140 s. To `Cc1nc(-c2ccc(S(=O)(=O)N3CCc4ccccc4C3)cc2)co1` belongs 1020 s; to `CCn1c(=O)c(SCC(=O)NCC2CCN(Cc3ccc(C)cc3)C2)nc2ccccc21` (stereo not given), 668 s; to `Fc1ccc(-c2noc3ncnc(N4CCN(c5ccccn5)CC4)c23)cc1`, 660 s. To `O=C1CC(c2nc(-c3ccccc3F)no2)CN1c1ccc2c(c1)OCO2` (stereo not given) belongs 865 s; to `Fc1ccc(Nc2ncnc3nc[nH]c23)cc1`, 582 s. On to `Cc1oc2c(C)c3oc(=O)c(CC(=O)N4CCC(C(N)=O)CC4)c(C)c3cc2c1C`, for which the RP-LC retention time is 735 s. Regarding `CCC(C)NC(=O)Cn1c(=O)c(S(=O)(=O)c2ccccc2)cc2cc(C)ccc21` (stereo not given), the RP-LC retention time is 879 s. On to `CCN(Cc1ccc(OC)cc1)Cc1cc(=O)n2ccccc2n1`, for which the RP-LC retention time amounted to 585 s. `CC(=O)Nc1ccc(C(=O)N2CCN(c3ccc(F)cc3)CC2)c(N2CCCCC2)c1`: the RP-LC retention time came to 833 s. To `Cc1cc(Cl)ccc1NC(=O)N1CCCC1c1nncn1-c1ccccc1` (stereo not given) belongs 724 s; to `O=c1c2ncccc2n(Cc2c(F)cccc2Cl)c(=O)n1Cc1cccnc1`, 852 s. On to `Cc1ccc(-c2csc(NC(=O)c3sc(-c4ccccc4)nc3C)n2)cc1C`, for which the RP-LC retention time came out at 1390 s.

Consider `COc1cc(OC)cc(C(=O)N2C[C@@H]3C[C@H]2C[C@@H]3NS(=O)(=O)c2ccccc2)c1`, for which the RP-LC retention time was determined as 792 s. Compound `CCN1CCN(C(=O)Cc2c(C)nc3nc(-c4ccc(C(C)(C)C)cc4)nn3c2C)CC1` showed an RP-LC retention time of 673 s. As for `CC(=O)NC1(C(=O)O)CCCC1`, the RP-LC retention time was 617 s. In turn, `COc1ccccc1NC(=O)N1CCCC(C)(C(=O)NCc2ccc(C)cc2)C1` (stereo not given) registered an RP-LC retention time of 898 s. `Cc1ccc(S(=O)(=O)NCCSc2ncccn2)cc1`: the RP-LC retention time turned out to be 727 s. Compound `O=C(Cn1c(=O)c2cc(C3CC3)nn2c2ncccc21)NCc1ccccc1` registered an RP-LC retention time of 727 s.

In turn, `Cc1cc(C)n(-c2ccnc(N3CCC(C(=O)NCc4ccccc4)CC3)n2)n1` came in with an RP-LC retention time of 832 s. Consider `O=C(C1CCCO1)N1CCn2c(nnc2-c2ccccc2)C1` (stereo not given), for which the RP-LC retention time stood at 608 s. Take `O=S(=O)(c1cccc(F)c1)N1CC(n2cc(COc3ccc(F)cc3)nn2)C1`: the RP-LC retention time came to 923 s.

Compound `Cc1ccc(C(=O)N2CCC(c3nc(-c4ccncc4)n[nH]3)CC2)s1` displayed an RP-LC retention time of 597 s. Compound `Nc1ccc(SCc2nnc(-c3cccc(F)c3)o2)cc1` gave an RP-LC retention time of 784 s. For the compound `CN(C(=O)Cc1nnc2cc(-c3nc(C4CC4)no3)ccn12)C1CCCCC1`, the RP-LC retention time is 1010 s. For the compound `CCN1CCN(c2cc(C(=O)O)c3cc(NS(=O)(=O)c4cc(F)ccc4C)ccc3n2)CC1`, the RP-LC retention time was 607 s.

The compound `CC1CCN(C(=O)c2ccc3c(c2)N(CC(=O)N2CCCC2)C(=O)CO3)CC1` returned an RP-LC retention time of 703 s. `CC1CN(Cc2nc3c(c(=O)n(C)c(=O)n3C)n2Cc2ccc(Br)cc2)CC(C)O1` (stereo not given) came in with an RP-LC retention time of 755 s. `CC(=O)Nc1ccc(-c2noc(C3CCN(C(=O)CCc4c[nH]c5ccccc45)CC3)n2)cc1` came in with an RP-LC retention time of 786 s.

The compound `Cc1oc2ncnc(OCC(=O)Nc3ccc(S(N)(=O)=O)cc3)c2c1C` came in with an RP-LC retention time of 738 s. `CCS(=O)(=O)N1CC(=O)N(c2ccc(F)cc2)C(C)(C(=O)NC2CCCCCCC2)C1` (stereo not given) yielded an RP-LC retention time of 938 s. `CCn1c(N2CCCC(C(=O)Nc3cc(OC)cc(OC)c3)C2)cc(=O)n(C)c1=O` (stereo not given) displayed an RP-LC retention time of 829 s. In turn, `COc1ccccc1Nc1c(-c2ccc(SC)cc2)nc2cnccn12` came in with an RP-LC retention time of 974 s.

Compound `c1cnc(-c2n[nH]c(C3CCN(Cc4ccsc4)CC3)n2)cn1` came in with an RP-LC retention time of 559 s. The compound `Cn1nccc1-c1cccc(-c2noc(-c3ccc(F)c(Cl)c3)n2)c1` had an RP-LC retention time of 1280 s. `CC(C)n1c(N2CCCN(C(=O)c3cccnc3)CC2)cc(=O)n(C(C)C)c1=O` returned an RP-LC retention time of 668 s. `CCN1C(=O)C2CC3(CCN(C(=O)CN4CCCC4=O)CC3)CN2C1=O` (stereo not given) registered an RP-LC retention time of 600 s.

`COc1ccc(CNC(=O)c2nnc(-c3ccc(S(=O)(=O)N(C)C)cc3)o2)cc1` had an RP-LC retention time of 845 s. In the case of `CCn1cc(-c2nc(-c3ccc(Cl)cc3)no2)c(=O)c2cc(F)c(N3CCOCC3)cc21` it was 1020 s; in that of `O=C(CN1CCCC(COCc2ccccc2)C1)N1CCN(c2ccccc2)CC1` (stereo not given), 620 s; in that of `Cc1ccc(NC(=O)Nc2nccn(-c3ccc(Br)cc3)c2=O)cc1C`, 1100 s. In the case of `Cc1cc(C)cc(NS(=O)(=O)c2cc3n(c2)CCCNC3=O)c1`, the RP-LC retention time came out at 678 s. Consider `CCc1cc(=O)n(CC(=O)Nc2ccc(C)cc2)c(N2CCOCC2)n1`, for which the RP-LC retention time is 612 s.
